For assay [1], the system named is HCV genotype 1b (Con1) replicon in HUH-7 cells. The assay is described as follows: HCV replicon luciferase reporter assay, genotype 1b. In kind it is cell-based. The settings on record: Hepatitis C virus, 72 h, 3 days incubation, read-out: LE_1b (EC50, range). The text has this: An HCV replicon whole cell system was established as described by Lohmann V, Korner F, Koch J, Herian U, Theilmann L, Bartenschlager R., Science 285(5424):110-3 (1999) and modified to introduce a luciferase reporter, as first described by Krieger et al (Krieger N, Lohmann V, and Bartenschlager R, J. Virol. 75(10):4614-4624 (2001)). CDNA encoding a humanized form of the Renilla luciferase gene and a linker sequence fused directly to the 3′-end of the luciferase gene were introduced into the replicon construct using an Asc1 restriction site located in core, directly upstream of the neomycin marker gene. The adaptive mutation at position 1179 (serine to isoleucine) was also introduced (Blight K J, Kolykhalov, A A, Rice, C M, Science 290(5498):1972-1974). A stable cell line constitutively expressing this HCV replicon construct was generated by first linearizing plasmid DNAs with ScaI. RNA transcripts were synthesized in vitro using the T7 MegaScript transcription kit (Ambion, Austin, Tex.) according to manufacturer's directions. In vitro transcripts of the cDNA were transfected into the human hepatoma cell line, HUH-7. […] Resulting cell lines were characterized for positive and negative strand RNA production and protein production over time. […]
(§1) HCV replicon luciferase assays were developed to monitor the inhibitory effects of compounds described in the disclosure on HCV genotypes 1a and 1b viral replication. HUH-7 cells, constitutively expressing the HCV replicon, were grown in Dulbecco's Modified Eagle Media (DMEM) (Gibco-BRL) containing 10% Fetal calf serum (FCS) (Sigma) and 1 mg/mL G418 (Gibco-BRL). Compounds were serially diluted 3 folds in DMSO for a twenty-point titration and subsequently transferred to sterile 384-well tissue-culture treated plates (Corning cat #3571). The plates were then seeded with 50 μL of cells at a density of 3.0×10^3 cells/well in DMEM containing 4% FCS (final DMSO concentration at 0.5%). After 3 days incubation at 37° C., cells were analyzed for Renilla Luciferase activity using the EnduRen as substrate (Promega cat #E6485). The EnduRen substrate was diluted in DMEM and then added to the plates to a final concentration of 7.5 μM. The plates were incubated for 2 hrs at 37° C. and then read immediately for 30 seconds with Viewlux Imager (PerkinElmer) using a luminescence program. To assess cytotoxicity of compounds, CC50 values were generated by multiplexing the EnduRen-containing plates with Cell Titer-Blue (Promega, cat # G8082). Cell-Titer Blue (3 μL) was added to each well and incubated for 8 hrs at 37° C. The fluorescence signal from each well was read, with an excitation wavelength at 525/10 nm and an emission wavelength of 598/10 nm, using the Viewlux Imager.
(§2) The EC50 values for compounds were calculated by using a four-parameter logistic equation: y=A+((B−A)/(1+((C/x)^D))), where A and B denotes minimal and maximal % inhibition, respectively, C is the EC50, D is the hill slope and x represents compound concentration.

Assay [2] has as its system HCV genotype 1a (H77 strain) replicon in HUH-7 cells. The assay is described as follows: HCV replicon luciferase reporter assay, genotype 1a. In kind it is cell-based. Particulars: Hepatitis C virus, Huh-7, 72 h, 3 days incubation, read-out: LE_1a (EC50, range).
Source text: An HCV replicon whole cell system was established as described by Lohmann V, Korner F, Koch J, Herian U, Theilmann L, Bartenschlager R., Science 285(5424):110-3 (1999) and modified to introduce a luciferase reporter, as first described by Krieger et al (Krieger N, Lohmann V, and Bartenschlager R, J. Virol. 75(10):4614-4624 (2001)). CDNA encoding a humanized form of the Renilla luciferase gene and a linker sequence fused directly to the 3′-end of the luciferase gene were introduced into the replicon construct using an Asc1 restriction site located in core, directly upstream of the neomycin marker gene. The adaptive mutation at position 1179 (serine to isoleucine) was also introduced (Blight K J, Kolykhalov, A A, Rice, C M, Science 290(5498):1972-1974). A stable cell line constitutively expressing this HCV replicon construct was generated by first linearizing plasmid DNAs with ScaI. RNA transcripts were synthesized in vitro using the T7 MegaScript transcription kit (Ambion, Austin, Tex.) according to manufacturer's directions. In vitro transcripts of the cDNA were transfected into the human hepatoma cell line, HUH-7. […] Resulting cell lines were characterized for positive and negative strand RNA production and protein production over time.
A stable HCV replicon luciferase reporter cell line representing the genotype 1a H77 strain (Yanagi M, Purcell R H, Emerson S U, et al. Transcripts from a single full-length cDNA clone of hepatitis C virus are infectious when directly transfected into the liver of a chimpanzee. Proc Natl Acad Sci USA 1997; 94(16):8738-8743) was generated as described previously for the genotype 1b (Con1) replicon luciferase cell line. The replicon construct was modified by introducing mutations were introduced into the genes encoding the NS3 helicase domain (proline replaced by leucine at position 1496) and NS5A (serine to isoleucine at position 2204) to improve replication in cell culture.
as §1, §2

The mark [3] stands for this setting: HCV genotype 1b replicon luciferase, class symbols.
Where [4] appears, read: HCV genotype 1a replicon luciferase, class symbols.
Setting [5] is: HCV genotype 1b replicon luciferase reporter, range class.
The mark [6] stands for this setting: HCV genotype 1a replicon luciferase reporter, range class.

pEC50: −log10 of the molar value. Where two headings read alike, the source gives them in different places. Some results are limits rather than exact numbers.

Regarding `CC[C@@H]1C[C@H](C)CC/C=C\[C@@H]2C[C@@]2(C(=O)NS(=O)(=O)C2(C)CC2)NC(=O)[C@@H]2C[C@@H](Oc3nccc4cc(OC)c(F)cc34)CN2C(=O)[C@H]1NC(=O)OC(C)(C)C(F)(F)F` [Compound 4176, 1,1,1-trifluoro-2-methylpropan-2-yl (2R,6S,7R,9R,13aS,14aR,16aS,Z)-7-ethyl-2-(7-fluoro-6-methoxyisoquinolin-1-yloxy)-9-methyl-14a-(1-methylcyclopropylsulfonylcarbamoyl)-5,16-dioxo-1,2,3,5,6,7,8,9,10,11,13a,14,14a,15,16,16a-hexadecahydrocyclopropa[e]pyrrolo[1,2-a][1,4]diazacyclopentadecin-6-ylcarbamate], the pEC50 in assay [1] (setting [3]) and in assay [2] (setting [4]) was greater than 8.26 each time.

For the molecule `COc1ccc2c(O[C@@H]3C[C@H]4C(=O)N[C@]5(C(=O)NS(=O)(=O)C6(CF)CC6)C[C@H]5/C=C\CC[C@@H](C)C[C@@H](C)[C@H](NC(=O)OC(C)(C)C(F)(F)F)C(=O)N4C3)ccnc2c1` [Compound 4198, 1,1,1-trifluoro-2-methylpropan-2-yl (2R,6S,7R,9R,13aS,14aR,16aS,Z)-14a-(1-(fluoromethyl)cyclopropylsulfonylcarbamoyl)-2-(7-methoxyquinolin-4-yloxy)-7,9-dimethyl-5,16-dioxo-1,2,3,5,6,7,8,9,10,11,13a,14,14a,15,16,16a-hexadecahydrocyclopropa[e]pyrrolo[1,2-a][1,4]diazacyclopentadecin-6-ylcarbamate], the negative logarithm of the EC50 (pEC50) in assay [1] (setting [3]) is greater than 8.26; in assay [2] (setting [4]), 6.99 to 8.32.

For the molecule `CCOc1cnc(O[C@@H]2C[C@H]3C(=O)N[C@]4(C(=O)NS(=O)(=O)C5(C)CC5)C[C@H]4/C=C\CC[C@@H](C)C[C@@H](CC)[C@H](NC(=O)OC(C)(C)C(F)(F)F)C(=O)N3C2)c2ccccc12` [Compound 4202, 1,1,1-trifluoro-2-methylpropan-2-yl (2R,6S,7R,9R,13aS,14aR,16aS,Z)-2-(4-ethoxyisoquinolin-1-yloxy)-7-ethyl-9-methyl-14a-(1-methylcyclopropylsulfonylcarbamoyl)-5,16-dioxo-1,2,3,5,6,7,8,9,10,11,13a,14,14a,15,16,16a-hexadecahydrocyclopropa[e]pyrrolo[1,2-a][1,4]diazacyclopentadecin-6-ylcarbamate], the pEC50 in assay [1] (setting [3]) and in assay [2] (setting [4]) was greater than 8.26 in each case.

On to `COCCOc1cc2c(Cl)cccc2c(O[C@@H]2C[C@H]3C(=O)N[C@]4(C(=O)NS(=O)(=O)C5(C)CC5)C[C@H]4/C=C\CC[C@@H](C)C[C@@H](C)[C@H](NC(=O)OC(C)(C)C(F)(F)F)C(=O)N3C2)n1` [Compound 1114, 1,1,1-trifluoro-2-methylpropan-2-yl ((2R,6S,7R,9R,13aS,14aR,16aS,Z)-2-((5-chloro-3-(2-methoxyethoxyl)isoquinolin-1-yl)oxy)-7,9-dimethyl-14a-(((1-methylcyclopropyl)sulfonyl)carbamoyl)-5,16-dioxo-1,2,3,5,6,7,8,9,10,11,13a,14,14a,15,16,16a-hexadecahydrocyclopropa[e]pyrrolo[1,2-a][1,4]diazacyclopentadecin-6-yl)carbamate], for which the pEC50 in assay [1] (setting [5]) and in assay [2] (setting [6]) was greater than 8.26 each time.

As for `CC[C@@H]1C[C@H](C)CC/C=C\[C@@H]2C[C@@]2(C(=O)NS(=O)(=O)C2CC2)NC(=O)[C@@H]2C[C@@H](Oc3ncc(OC)c4ccccc34)CN2C(=O)[C@H]1NC(=O)OC(C)(C)C(F)(F)F` [Compound 4008, 1,1,1-trifluoro-2-methylpropan-2-yl (2R,6S,7R,9R,13aS,14aR,16aS,Z)-14a-(cyclopropylsulfonylcarbamoyl)-7-ethyl-2-(4-methoxyisoquinolin-1-yloxy)-9-methyl-5,16-dioxo-1,2,3,5,6,7,8,9,10,11,13a,14,14a,15,16,16a-hexadecahydrocyclopropa[e]pyrrolo[1,2-a][1,4]diazacyclopentadecin-6-ylcarbamate], the pEC50 in assay [1] (setting [3]) and in assay [2] (setting [4]) was greater than 8.26 throughout.

As for `CC[C@@H]1C[C@H](C)CC/C=C\[C@@H]2C[C@@]2(C(=O)NS(=O)(=O)C2(C)CC2)NC(=O)[C@@H]2C[C@@H](Oc3ncc(OC)c4ccccc34)CN2C(=O)[C@H]1NC(=O)OC(C)(C)C(F)(F)F` [Compound 4174, 1,1,1-trifluoro-2-methylpropan-2-yl (2R,6S,7R,9R,13aS,14aR,16aS,Z)-7-ethyl-2-(4-methoxyisoquinolin-1-yloxy)-9-methyl-14a-(1-methylcyclopropylsulfonylcarbamoyl)-5,16-dioxo-1,2,3,5,6,7,8,9,10,11,13a,14,14a,15,16,16a-hexadecahydrocyclopropa[e]pyrrolo[1,2-a][1,4]diazacyclopentadecin-6-ylcarbamate], the negative-log EC50 (pEC50) in assay [1] (setting [3]) and in assay [2] (setting [4]) was greater than 8.26 throughout.

`CC[C@@H]1C[C@H](C)CC/C=C\[C@@H]2C[C@@]2(C(=O)NS(=O)(=O)C2(C)CC2)NC(=O)[C@@H]2C[C@@H](Oc3nccc4cc(OC)ccc34)CN2C(=O)[C@H]1NC(=O)OC(C)(C)C` [Compound 4203, tert-butyl (2R,6S,7R,9R,13aS,14aR,16aS,Z)-7-ethyl-2-(6-methoxyisoquinolin-1-yloxy)-9-methyl-14a-(1-methylcyclopropylsulfonylcarbamoyl)-5,16-dioxo-1,2,3,5,6,7,8,9,10,11,13a,14,14a,15,16,16a-hexadecahydrocyclopropa[e]pyrrolo[1,2-a][1,4]diazacyclopentadecin-6-ylcarbamate]: the negative-log EC50 (pEC50) in assay [1] (setting [3]) and in assay [2] (setting [4]) was greater than 8.26 each time.

Regarding `COc1ccc2c(O[C@@H]3C[C@H]4C(=O)N[C@]5(C(=O)NS(=O)(=O)C6(C)CC6)C[C@H]5/C=C\CC[C@@H](C)C[C@@H](C)[C@H](NC(=O)OC(C)(C)C(F)(F)F)C(=O)N4C3)nc(N(C)C)cc2c1` [Compound 3117, 1,1,1-trifluoro-2-methylpropan-2-yl ((2R,6S,7R,9R,13aS,14aR,16aS,Z)-2-((3-(dimethylamino)-6-methoxyisoquinolin-1-yl)oxy)-7,9-dimethyl-14a-(((1-methylcyclopropyl)sulfonyl)carbamoyl)-5,16-dioxo-1,2,3,5,6,7,8,9,10,11,13a,14,14a,15,16,16a-hexadecahydrocyclopropa[e]pyrrolo[1,2-a][1,4]diazacyclopentadecin-6-yl)carbamate], the pEC50 in assay [1] (setting [5]) and in assay [2] (setting [6]) was greater than 8.26 each time.

Source of the values: patent US9527885B2, “Hepatitis C virus inhibitors” (BRISTOL-MYERS SQUIBB COMPANY, priority 2011, dated 2016).
